Reference: patent publication US20090105245A1, “METHODS FOR TREATING MACULAR EDEMA AND OCULAR ANGIOGENESIS USING AN ANTI-INFLAMMATORY AGENT AND A RECEPTOR TYROSINE KINASE INHIBITOR” (priority 2006, published 2009)

Tests used:
Format in all cases: in vivo
[1] = tested on: existing laser-induced choroidal neovascularization (CNV) in the mouse; assay: Mouse laser-induced CNV, regression paradigm, oral gavage from day 7; details: 3 mg/kg/day, oral from day 7
[2] = tested on: preretinal neovascularization (NV) in the rat model of oxygen-induced retinopathy; assay: Rat model of oxygen-induced retinopathy (OIR), single intravitreal injection
Description: METHODS: Pregnant Sprague-Dawley rats were received at 14 days gestation and subsequently gave birth on Day 22±1 of gestation. Immediately following parturition, pups were pooled and randomized into separate litters (n=17 pups/litter), placed into separate shoebox cages inside oxygen delivery chamber, and subjected to an oxygen-exposure profile from Day 0-14 postpartum. Litters were then placed into room air from Day 14/0 through Day 14/6 (days 14-20 postpartum). Additionally on Day 14/0, each pup was randomly assigned as an oxygen-exposed control or into various treatment groups. For those randomized into an injection treatment group: one eye received a 5 μl intravitreal injection of 0.1%, 0.3%, 0.6%, or 1% RTKi and the contralateral eye received a 5 μl intravitreal injection of vehicle. At Day 14/6 (20 days postpartum), all animals in both studies were euthanized.
(§1) Immediately following euthanasia, retinas from all rat pups were harvested, fixed in 10% neutral buffered formalin for 24 hours, subjected to ADPase staining, and fixed onto slides as whole mounts. Digital images were acquired from each retinal flat mount that was adequately prepared. Computerized image analysis was used to obtain a NV clockhour score from each readable sample. Each clockhour out of 12 total per retina was assessed for the presence or absence of preretinal NV. Statistical comparisons using median scores for NV clockhours from each treatment group were utilized in nonparametric analyses. Each noninjected pup represented one NV score by taking the average value of both eyes and was used in comparisons against each dosage group. Because the pups were randomly assigned and no difference was observed between oxygen-exposed control pups from all litters, the NV scores were combined for all treatment groups. P≦0.05 was considered statistically significant.

[3] = tested on: VEGF-induced retinal vascular permeability; assay: VEGF-induced retinal vascular permeability in the rat (Evans blue), intravitreal injection; details: 10 μl intravitreal
Experimental: METHODS: Adult Sprague-Dawley rats were anesthetized with intramuscular ketamine/xylazine and their pupils dilated with topical cycloplegics. Rats were randomly assigned to intravitreal injection groups of 0% 0.3%, 1.0%, and 3.0% RTKI and a positive control. Ten μl of each compound was intravitreally injected in each treatment eye (n=6 eyes per group). Three days following first intravitreal injection, all animals received an intravitreal injection of 10 μl 1400 ng hr VEGF in both eyes. Twenty-four hours post-injection of VEGF, intravenous infusion of 3% Evans blue dye was performed in all animals, where 50 mg/kg of Evans blue dye was injected via the lateral tail vein during general anesthesia. After the dye had circulated for 90 minutes, the rats were euthanized. The rats were then systemically perfused with balanced salt solution, and then both eyes of each rat were immediately enucleated and the retinas harvested using a surgical microscope. After measurement of the retinal wet weight, the Evans blue dye was extracted by placing the retina in a 0.2 ml formamide (Sigma) and then the homogenized and ultracentrifuged. Blood samples were centrifuged and the plasma diluted 100 fold in formamide. For both retina and plasma samples, 60 μl of supernatant was used to measure the Evans blue dye absorbance (ABS) with at 620/740 nm. The blood-retinal barrier breakdown and subsequent retinal vascular permeability as measured by dye absorbance were calculated as means ±s.e.m. of net ABS/wet weight/plasma ABS. A two-tailed Student's t-test were used for pair wise comparisons between OS and OD eyes in each group. One way ANOVA was used to determine an overall difference between treatment means, where P≦0.05 was considered significant.

[4] = tested on: diabetes-induced retinal vascular permeability; assay: STZ diabetic rat retinal vascular permeability (Evan's blue albumin permeation), oral gavage
Experimental: METHODS: Diabetes was induced in male Long-Evans rats with 65 mg/kg streptozotocin (STZ) after an overnight fast. Upon confirmation of diabetes (blood glucose >250 mg/dl), treatment was initiated by oral gavage. Non-diabetic (NDM) and diabetic (DM) rats received oral gavage of either vehicle or RTK inhibitor at 1.5 or 5 mg/kg/d BID. After 2 weeks, jugular vein catheters were implanted 1 day prior to experimentation for the infusion of indicator dye. Retinal vascular permeability, RVP, was measured using Evan's blue albumin permeation (45 mg/kg) after a 2 hour circulation period.

[5] = tested on: preretinal neovascularization (NV) in the rat OIR model; assay: Rat OIR model, oral gavage
Experimental: as §1
METHODS: Pregnant Sprague-Dawley rats were received at 14 days gestation and subsequently gave birth on Day 22±1 of gestation. Immediately following parturition, pups were pooled and randomized into separate litters (n=17 pups/litter), placed into separate shoebox cages inside oxygen delivery chamber, and subjected to an oxygen-exposure profile from Day 0 to Day 14 postpartum. Litters were then placed into room air from Day 14/0 through Day 14/6 (days 14-20 postpartum). Additionally on Day 14/0, each pup was randomly assigned as oxygen-exposed controls, vehicle treated, or drug-treated at 1.5, 5, 10 mg/kg, p.o., BID. At Day 14/6 (20 days postpartum), all animals in both studies were euthanized and retina whole mounts were prepared as described in Example 1 above.

## Cc1ccc(F)c(NC(=O)Nc2ccc(-c3cccc4[nH]nc(N)c34)cc2)c1 [Compound 86, N-[4-[3-amino-1H-indazol-4-yl]phenyl]-N′-(2-fluoro-5-methylphenyl)urea]
[1]
  regression of existing CNV: did not show a significant regression of existing CNV
[2]; 0.1% treated eyes
  efficacy against preretinal NV: Efficacy was not observed
[2]; 0.3-1% RTKi
  inhibition of preretinal NV vs vehicle-injected and control noninjected eyes: significant inhibition of preretinal NV
[2]; single intravitreal injection, rat OIR (FIG. 1)
  inhibition of preretinal neovascularization (NV): inhibits preretinal neovascularization (NV)
[3]; 0.3% RTKi
  decrease of retinal vascular permeability vs vehicle-injected eyes: 50%
[3]; 1.0% RTKi
  decrease of retinal vascular permeability vs vehicle-injected eyes: 61%
[3]; 3% RTKi
  decrease of retinal vascular permeability vs vehicle-injected eyes: 53%
[4]; DM control vs DM treatment groups
  blood glucose levels and body weights: not different between DM control and DM treatment groups
[4]; oral RTKi, NDM and DM groups
  tolerability, systemic or ERG side effects: well tolerated by both NDM and DM groups with no observed systemic or ERG side effects
[5]; 3 mg/kg/day p.o.
  decrease in NV: did not have a significant decrease in NV
[5]; 10 mg/kg/day p.o.
  inhibition of preretinal NV vs vehicle-treated pups: significant inhibition of preretinal NV
[5]; 20 mg/kg/day p.o.
  inhibition of preretinal NV: complete inhibition of preretinal NV
[5]; oral gavage, rat OIR (FIG. 2)
  prevention of preretinal neovascularization (NV): prevents preretinal neoavascularization (NV)
